From ChEMBL document CHEMBL6114967, “Design and synthesis of novel sulfur-substituted triptolide with the ability to induce autophagy through inhibition of SRSF1 expression” (Eur J Med Chem, 2025)
pIC50: −log10 of the molar value. Activity calls are given as the source filed them. The calls are words filed in the database; no cut-off is given here.

Key:
AGS [1] = assay: Antiproliferative activity against human AGS cells assessed as inhibition of cell proliferation incubated for 72 hrs by MTT assay; type: functional, cell-based
HGC-27 [2] = assay: Downregulation of Bcl-xl protein level in human HGC-27 cells at 0.5 to 2 uM by Western blotting analysis; type: functional, cell-based; conditions: dose 0.5-2 µM
[3] = Selectivity index, ratio of IC50 for antiproliferative activity against human LO2 cells to IC50 for antiproliferative activity against human AGS cells; type: cell-based; conditions: LO2 cells and AGS cells, read-out: Ratio IC50
AGS [4] = assay: Induction of apoptosis in human AGS cells assessed as necrotic cells at 1 uM incubated for 48 hrs by annexin V-FITC and PI staining based flow cytometry analysis (reference value: 0.44%); type: functional
HGC-27 [5] = assay: Induction of apoptosis in human HGC-27 cells assessed as viable cells at 0.5 uM incubated for 48 hrs by annexin V-FITC and PI staining based flow cytometry analysis (reference value: 91.8%); type: functional; conditions: read-out: Activity
HGC-27 [6] = assay: Induction of cell cycle arrest in human HGC-27 cells assessed as increase in P21 expression at 0.5 to 2 uM by Western blotting analysis; type: functional, cell-based; conditions: dose 0.5-2 µM
HGC-27 [7] = assay: Induction of autophagy in human HGC-27 cells assessed as upregulation of LC3 II protein level at 0.5 to 2 uM incubated for 48 hrs by Western blotting analysis; type: functional, cell-based; conditions: dose 0.5-2 µM
HGC-27 [8] = assay: Induction of apoptosis in human HGC-27 cells assessed as early apoptotic cells at 2 uM incubated for 48 hrs by annexin V-FITC and PI staining based flow cytometry analysis (reference value: 3.13%); type: functional
[9] = Toxicity in male ICR mouse assessed as animal death at 1 g/Kg, ip measured after 7 days; type: organism-based; conditions: in vivo, 1000 mg/kg, 168 h, time 7 day
B16-F10 = assay: Antiproliferative activity against mouse B16-F10 cells assessed as inhibition of cell proliferation incubated for 72 hrs by MTT assay; type: functional, cell-based; conditions: B16-F10, 72 h
HGC-27 [10] = assay: Induction of autophagy in human HGC-27 cells assessed as increase in LC3 II/LC3 I ratio in tumor tissue at 25 to 100 mg/kg, ip administered daily; type: functional, organism-based; conditions: dose 25-100 mg/kg
HGC-27 [11] = assay: Induction of apoptosis in human HGC-27 cells assessed as necrotic cells at 1 uM incubated for 48 hrs by annexin V-FITC and PI staining based flow cytometry analysis (reference value: 0.062%); type: functional
SGC-7901 = assay: Antiproliferative activity against human SGC-7901 cells assessed as inhibition of cell proliferation incubated for 72 hrs by MTT assay; type: functional, cell-based; conditions: SGC-7901, 72 h
AGS [12] = assay: Downregulation of SRSF1 protein level in human AGS cells at 0.5 to 2 uM by Western blotting analysis; type: functional, cell-based; conditions: dose 0.5-2 µM
AGS [13] = assay: Downregulation of Bcl-xl expression in human AGS cells at 0.5 to 2 uM incubated overnight by Western blotting analysis; type: functional, cell-based; conditions: dose 0.5-2 µM
HGC-27 [14] = assay: Induction of apoptosis in human HGC-27 cells assessed as viable cells at 1 uM incubated for 48 hrs by annexin V-FITC and PI staining based flow cytometry analysis (reference value: 91.8%); type: functional; conditions: read-out: Activity
AGS [15] = assay: Downregulation of Bcl-xl protein level in human AGS cells at 0.5 to 2 uM by Western blotting analysis; type: functional, cell-based; conditions: dose 0.5-2 µM
[16] = Acute toxicity in male ICR mouse assessed as abnormal hepatocyte morphology at 1 g/Kg, ip measured after 7 days by H and E staining based light microscopic analysis; type: organism-based; conditions: in vivo, 1000 mg/kg, 168 h, time 7 day
AGS [17] = assay: Induction of cell cycle arrest in human AGS cells assessed as reduction in CyclinE2 expression at 0.5 to 2 uM by Western blotting analysis; type: functional, cell-based; conditions: dose 0.5-2 µM
HGC-27 [18] = assay: Upregulation of MAP1LC3B2 mRNA expression in human HGC-27 cells at 2 uM incubated for 24 hrs; type: functional, cell-based
HGC-27 [19] = assay: Antitumor activity against human HGC-27 cells xenografted in male BALB/c nude mouse assessed as tumor growth inhibition at 25 mg/kg, ip administered every day for 15 days relative to control; type: functional; conditions: HGC-27, 360 h, time 15 day, read-out: TGI
AGS [20] = assay: Induction of autophagy in human AGS cells assessed as upregulation of LC3 I protein level at 0.5 to 2 uM incubated for 48 hrs by Western blotting analysis; type: functional, cell-based; conditions: dose 0.5-2 µM
HCT-116 = assay: Antiproliferative activity against human HCT-116 cells assessed as inhibition of cell proliferation incubated for 72 hrs by MTT assay; type: functional, cell-based; conditions: HCT-116, 72 h
AGS [21] = assay: Induction of apoptosis in human AGS cells assessed as late apoptotic cells at 2 uM incubated for 48 hrs by annexin V-FITC and PI staining based flow cytometry analysis (reference value: 3.15%); type: functional
HGC-27 [22] = assay: Downregulation of SRSF1 mRNA expression in human HGC-27 cells incubated for 24 hrs by SYBR green dye based RT-qPCR analysis; type: functional, cell-based; conditions: dose 0.5-2 µM
HGC-27 [23] = assay: Downregulation of RNA splicing pathway in human HGC-27 cells at 2 uM incubated for 24 hrs by KEGG enrichment analysis; type: functional, cell-based
HGC-27 [24] = assay: Induction of autophagy in human HGC-27 cells assessed as upregulation of Beclin1 protein level at 0.5 to 2 uM incubated for 48 hrs by Western blotting analysis; type: functional, cell-based; conditions: dose 0.5-2 µM
HGC-27 [25] = assay: Induction of apoptosis in human HGC-27 cells assessed as necrotic cells at 0.5 uM incubated for 48 hrs by annexin V-FITC and PI staining based flow cytometry analysis (reference value: 0.062%); type: functional
[26] = Antiproliferative activity against human LO2 cells assessed as inhibition of cell proliferation incubated for 72 hrs by MTT assay; type: toxicity, cell-based, L02
AGS [27] = assay: Induction of autophagy in human AGS cells assessed as upregulation of Beclin1 protein level at 0.5 to 2 uM incubated for 48 hrs by Western blotting analysis; type: functional, cell-based; conditions: dose 0.5-2 µM
HGC-27 [28] = assay: Induction of apoptosis in human HGC-27 cells assessed as late apoptotic cells at 2 uM incubated for 48 hrs by annexin V-FITC and PI staining based flow cytometry analysis (reference value: 5.02%); type: functional
HGC-27 [29] = assay: Antiproliferative activity against human HGC-27 cells assessed as inhibition of cell proliferation incubated for 72 hrs by MTT assay; type: functional, cell-based; conditions: HGC-27, 72 h
[30] = Selectivity index, ratio of IC50 for antiproliferative activity against human LO2 cells to IC50 for antiproliferative activity against human HGC-27 cells; type: toxicity, cell-based; conditions: LO2 cells and HGC-27 cells, read-out: Ratio IC50
AGS [31] = assay: Induction of apoptosis in human AGS cells assessed as necrotic cells at 2 uM incubated for 48 hrs by annexin V-FITC and PI staining based flow cytometry analysis (reference value: 0.44%); type: functional
HGC-27 [32] = assay: Induction of autophagy in human HGC-27 cells assessed as increase in green fluorescent number co-treated with chloroquine at 2 uM incubated for 48 hrs by DAPI staining based immunofluorescence analysis; type: functional, cell-based
AGS [33] = assay: Induction of apoptosis in human AGS cells assessed as viable cells at 1 uM incubated for 48 hrs by annexin V-FITC and PI staining based flow cytometry analysis (reference value: 92.0%); type: functional; conditions: read-out: Activity
AGS [34] = assay: Induction of autophagy in human AGS cells assessed as upregulation of LC3 II protein level at 0.5 to 2 uM incubated for 48 hrs by Western blotting analysis; type: functional, cell-based; conditions: dose 0.5-2 µM

For CC(C)[C@]12O[C@H]1[C@@H]1O[C@]13[C@]1(O[C@H]1C[C@H]1C4=C(CC[C@@]13C)C(=S)OC4)[C@@H]2O, the pIC50 (AGS [1]) was 6.19, the Activity (HGC-27 [2]) was “Active” and the selectivity ratio [3] was 4.55. The Activity (AGS [4]) was 0.73%, the viability at 0.5 µM (HGC-27 [5]) was 85.9% and the Activity (HGC-27 [6]) was “Active”. The Activity (HGC-27 [7]) was “Active”, the Activity (HGC-27 [8]) was 28.1% and the Activity [9] was “Non-toxic”. The pIC50 (B16-F10) was 6.48, the Activity (HGC-27 [10]) was “Active” and the Activity (HGC-27 [11]) was 0.11%. For the same compound, the pIC50 (SGC-7901) was 5.74, the Activity (AGS [12]) was “Active” and the Activity (AGS [13]) was “Active”. For the same compound, the viability at 1 µM (HGC-27 [14]) was 84.5%, the Activity (AGS [15]) was “Active” and the Activity [16] was “Non-toxic”. The Activity (AGS [17]) was “Active”, the Activity (HGC-27 [18]) was “Active” and the inhibition in vivo at 25 mg/kg (HGC-27 [19]) was 63.7%. For the same compound, the Activity (AGS [20]) was “Active”, the pIC50 (HCT-116) was 6.40 and the Activity (AGS [21]) was 31.7%. For the same compound, the Activity (HGC-27 [22]) was “Dose-dependent-effect”, the Activity (HGC-27 [23]) was “Active” and the Activity (HGC-27 [24]) was “Active”. The Activity (HGC-27 [25]) was 0.13%, the IC50 at 72 h [26] was 2.86 µM and the Activity (AGS [27]) was “Active”. The Activity (HGC-27 [28]) was 19.7%, the pIC50 (HGC-27 [29]) was 6.48 and the selectivity ratio [30] was 6.56. The Activity (AGS [31]) was 0.82%, the Activity (HGC-27 [32]) was “Active” and the viability at 1 µM (AGS [33]) was 65.1%. For the same compound, the Activity (AGS [34]) was “Active”.
